`COc1nc(N2CCN(C(=O)c3ccccc3C(F)(F)F)CC2)ccc1C(=O)NCCC1CC1` [Example 7, N-(2-cyclopropylethyl)-2-methoxy-6-(4-(2-trifluoromethylbenzoyl)piperazin-1-yl]nicotinamide] gave a melting point of 49 to 51 °C.
